One may read the IC50 as the point on the concentration scale where inhibition reaches its midpoint. Lower therefore signals higher potency.

The structures appear in SMILES notation.

For eight compounds, IC50 results are on record in ChEMBL document CHEMBL1138235, “Discovery of dibenzo[c,f][2,7]naphthyridines as potent and selective 3-phosphoinositide-dependent kinase-1 inhibitors” (J Med Chem, 2007).

The target of test [1] is Ribosomal protein S6 kinase beta-1 (Homo sapiens, UniProt P23443). The experiment in a line: Inhibition of S6K.
Test [2] has as its target MAP kinase-activated protein kinase 2 (Homo sapiens, UniProt P49137). The experiment in a line: Inhibition of MK2.
A short description of test [3]: Growth inhibition of M49-5 cells. The following applies: Homo sapiens. The test is classed as functional, cell-based.
For test [4], the system named is MDA-MB-468. The experiment in a line: Growth inhibition of MDA-MB-468 cells. The test is classed as functional, cell-based. The note with it: Homo sapiens.
Test [5] is described as follows: Growth inhibition of PC-3mm2 cells. It is filed as functional, cell-based. The note with it: Homo sapiens, PC3MM2.
Test [6] concerns DU-145. The experiment in a line: Growth inhibition of DU145 cells. The test is classed as functional, cell-based. The note with it: Homo sapiens.
The test system of test [7] is K562. The experiment in a line: Growth inhibition of K562 cells. The following applies: Homo sapiens. It is filed as functional, cell-based.
The target in test [8] is RAC-alpha serine/threonine-protein kinase (Homo sapiens, UniProt P31749). The experiment in a line: Inhibition of AKT.
For test [9], the target named is Proto-oncogene tyrosine-protein kinase Src (Homo sapiens, UniProt P12931). The experiment in a line: Inhibition of Src.
Test [10] deals with SW-620. The experiment in a line: Growth inhibition of SW620 cells. The test is classed as functional, cell-based. The following applies: Homo sapiens.
Test [11] can be described thus: Inhibition of TPL2. Details: species or system Homo sapiens.
Test [12] can be described thus: Inhibition of PKA. Also noted: species or system Homo sapiens.
The nature of test [13]: Inhibition of MEK. Details: species or system Homo sapiens.
The target of test [14] is Inhibitor of NF-kappa-B kinase (IKK) (Homo sapiens, UniProt O14920+O15111+Q9Y6K9). The experiment in a line: Inhibition of IKK. It is filed as protein-complex assay.
Test [15] can be described thus: Inhibition of CAMII. Details: species or system Homo sapiens.
For test [16], the target named is Cyclin-dependent kinase 4 (Homo sapiens, UniProt P11802). The experiment in a line: Inhibition of CDK4.
Test [17] deals with T1, Serine/threonine-protein kinase Sgk1 (Homo sapiens, UniProt O00141).
T1 sequence (O00141 whole entry): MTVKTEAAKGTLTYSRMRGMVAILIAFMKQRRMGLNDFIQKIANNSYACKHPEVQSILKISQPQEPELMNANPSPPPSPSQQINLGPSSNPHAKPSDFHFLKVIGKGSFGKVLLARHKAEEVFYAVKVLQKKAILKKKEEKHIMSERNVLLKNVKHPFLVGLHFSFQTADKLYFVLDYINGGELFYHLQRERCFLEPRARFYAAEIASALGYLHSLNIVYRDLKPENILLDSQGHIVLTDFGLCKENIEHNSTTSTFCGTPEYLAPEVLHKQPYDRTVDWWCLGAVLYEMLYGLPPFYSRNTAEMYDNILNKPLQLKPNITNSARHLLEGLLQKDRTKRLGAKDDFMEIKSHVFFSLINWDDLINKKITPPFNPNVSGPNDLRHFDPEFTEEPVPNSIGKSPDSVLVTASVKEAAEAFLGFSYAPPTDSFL
The experiment in a line: Inhibition of SGK1.

Test [18] relates to HCT-116. The experiment in a line: Growth inhibition of HCT116 cells. It is filed as functional, cell-based. The following applies: Homo sapiens.
Test [19] in a line: Inhibition of P38. Also noted: species or system Homo sapiens.
The target in test [20] is T2, 3-phosphoinositide-dependent protein kinase 1 (Homo sapiens, UniProt O15530).
T2 sequence (O15530 whole entry): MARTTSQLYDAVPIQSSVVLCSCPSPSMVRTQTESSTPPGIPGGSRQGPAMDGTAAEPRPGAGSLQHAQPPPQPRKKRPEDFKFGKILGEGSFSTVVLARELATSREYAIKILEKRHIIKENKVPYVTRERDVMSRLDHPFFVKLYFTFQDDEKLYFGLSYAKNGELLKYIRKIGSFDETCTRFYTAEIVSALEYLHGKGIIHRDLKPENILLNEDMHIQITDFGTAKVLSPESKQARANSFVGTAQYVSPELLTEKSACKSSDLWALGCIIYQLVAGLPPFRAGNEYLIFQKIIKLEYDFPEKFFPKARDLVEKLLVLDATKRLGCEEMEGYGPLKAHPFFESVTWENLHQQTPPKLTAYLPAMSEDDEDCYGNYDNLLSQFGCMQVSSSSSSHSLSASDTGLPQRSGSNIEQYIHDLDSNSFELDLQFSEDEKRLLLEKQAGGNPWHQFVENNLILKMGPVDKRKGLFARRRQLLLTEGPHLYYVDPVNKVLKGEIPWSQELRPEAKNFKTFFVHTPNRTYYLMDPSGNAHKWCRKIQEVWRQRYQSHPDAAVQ
The experiment in a line: Inhibition of PDK1.

Chain of Cyclin-dependent kinase 4 (P11802 whole entry): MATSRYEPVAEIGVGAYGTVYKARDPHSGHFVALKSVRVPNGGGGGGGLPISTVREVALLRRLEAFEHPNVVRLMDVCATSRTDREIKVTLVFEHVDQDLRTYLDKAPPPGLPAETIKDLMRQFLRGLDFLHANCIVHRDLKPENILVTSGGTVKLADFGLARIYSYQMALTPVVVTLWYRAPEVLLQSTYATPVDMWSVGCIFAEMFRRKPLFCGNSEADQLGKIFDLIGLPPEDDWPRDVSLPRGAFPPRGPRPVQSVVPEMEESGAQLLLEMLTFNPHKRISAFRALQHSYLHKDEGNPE
Chain of Inhibitor of NF-kappa-B kinase (IKK) (O14920 whole entry): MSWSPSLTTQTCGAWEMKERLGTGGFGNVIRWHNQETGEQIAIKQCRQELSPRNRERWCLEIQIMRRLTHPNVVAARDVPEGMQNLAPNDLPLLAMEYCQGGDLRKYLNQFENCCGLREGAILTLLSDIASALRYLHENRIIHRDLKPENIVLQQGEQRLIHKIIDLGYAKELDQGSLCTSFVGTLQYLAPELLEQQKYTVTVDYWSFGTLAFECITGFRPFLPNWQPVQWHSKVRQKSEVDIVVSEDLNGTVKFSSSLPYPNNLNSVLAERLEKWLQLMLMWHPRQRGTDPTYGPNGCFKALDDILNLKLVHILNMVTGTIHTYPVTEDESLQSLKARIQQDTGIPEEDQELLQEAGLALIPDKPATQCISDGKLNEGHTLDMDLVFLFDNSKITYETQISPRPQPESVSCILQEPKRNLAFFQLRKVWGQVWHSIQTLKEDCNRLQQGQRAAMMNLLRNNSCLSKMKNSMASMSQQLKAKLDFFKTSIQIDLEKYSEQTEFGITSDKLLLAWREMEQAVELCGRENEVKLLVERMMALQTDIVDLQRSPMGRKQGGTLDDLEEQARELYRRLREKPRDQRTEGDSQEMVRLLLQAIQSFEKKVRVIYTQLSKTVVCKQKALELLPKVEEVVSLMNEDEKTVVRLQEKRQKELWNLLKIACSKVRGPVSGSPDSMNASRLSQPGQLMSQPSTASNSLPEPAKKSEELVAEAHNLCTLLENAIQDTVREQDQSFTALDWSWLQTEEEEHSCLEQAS
Chain of Inhibitor of NF-kappa-B kinase (IKK) (O15111 whole entry): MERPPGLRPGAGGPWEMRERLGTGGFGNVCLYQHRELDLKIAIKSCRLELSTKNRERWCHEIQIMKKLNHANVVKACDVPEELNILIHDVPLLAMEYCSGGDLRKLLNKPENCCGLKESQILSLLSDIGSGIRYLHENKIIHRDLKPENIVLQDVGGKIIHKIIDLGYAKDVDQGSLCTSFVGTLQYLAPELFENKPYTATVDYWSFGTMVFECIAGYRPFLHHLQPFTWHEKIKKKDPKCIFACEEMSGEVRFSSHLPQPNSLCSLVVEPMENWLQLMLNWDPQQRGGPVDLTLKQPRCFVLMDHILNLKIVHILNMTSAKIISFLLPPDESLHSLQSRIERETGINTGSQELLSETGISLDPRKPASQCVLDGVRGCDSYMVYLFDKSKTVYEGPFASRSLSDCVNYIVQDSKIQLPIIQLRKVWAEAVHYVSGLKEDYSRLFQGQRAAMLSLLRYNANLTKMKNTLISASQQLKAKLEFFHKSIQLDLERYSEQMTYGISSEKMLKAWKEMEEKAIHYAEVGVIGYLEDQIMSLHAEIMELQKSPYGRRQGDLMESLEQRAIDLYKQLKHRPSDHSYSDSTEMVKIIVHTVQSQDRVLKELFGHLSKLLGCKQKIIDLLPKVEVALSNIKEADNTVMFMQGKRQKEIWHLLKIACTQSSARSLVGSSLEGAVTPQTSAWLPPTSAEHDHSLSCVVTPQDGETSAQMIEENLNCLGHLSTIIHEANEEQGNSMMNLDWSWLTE
Chain of Inhibitor of NF-kappa-B kinase (IKK) (Q9Y6K9 whole entry): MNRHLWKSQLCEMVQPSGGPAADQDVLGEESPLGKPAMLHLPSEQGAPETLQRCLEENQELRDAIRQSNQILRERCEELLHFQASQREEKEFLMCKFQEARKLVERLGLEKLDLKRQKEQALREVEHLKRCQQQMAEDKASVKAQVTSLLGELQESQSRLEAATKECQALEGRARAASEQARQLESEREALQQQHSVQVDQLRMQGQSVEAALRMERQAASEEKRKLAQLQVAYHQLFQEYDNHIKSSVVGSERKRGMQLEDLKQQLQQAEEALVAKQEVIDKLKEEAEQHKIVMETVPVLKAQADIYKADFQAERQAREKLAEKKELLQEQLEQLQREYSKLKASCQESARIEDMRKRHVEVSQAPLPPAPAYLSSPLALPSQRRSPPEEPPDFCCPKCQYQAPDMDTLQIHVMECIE
Chain of Ribosomal protein S6 kinase beta-1 (P23443 whole entry): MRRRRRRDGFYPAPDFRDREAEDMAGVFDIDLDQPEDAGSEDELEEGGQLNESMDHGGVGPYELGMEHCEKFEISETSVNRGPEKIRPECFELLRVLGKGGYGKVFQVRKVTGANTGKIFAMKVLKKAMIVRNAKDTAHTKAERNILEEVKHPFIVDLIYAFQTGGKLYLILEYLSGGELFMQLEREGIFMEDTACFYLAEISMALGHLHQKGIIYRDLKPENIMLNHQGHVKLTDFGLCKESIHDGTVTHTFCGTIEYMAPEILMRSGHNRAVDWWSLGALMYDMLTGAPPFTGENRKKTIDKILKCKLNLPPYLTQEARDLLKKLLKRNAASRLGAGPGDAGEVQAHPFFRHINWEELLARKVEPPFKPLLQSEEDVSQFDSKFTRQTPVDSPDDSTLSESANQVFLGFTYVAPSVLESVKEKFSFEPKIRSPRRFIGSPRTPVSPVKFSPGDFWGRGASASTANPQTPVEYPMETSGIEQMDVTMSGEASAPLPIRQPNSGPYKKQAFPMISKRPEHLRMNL
Chain of MAP kinase-activated protein kinase 2 (P49137 whole entry): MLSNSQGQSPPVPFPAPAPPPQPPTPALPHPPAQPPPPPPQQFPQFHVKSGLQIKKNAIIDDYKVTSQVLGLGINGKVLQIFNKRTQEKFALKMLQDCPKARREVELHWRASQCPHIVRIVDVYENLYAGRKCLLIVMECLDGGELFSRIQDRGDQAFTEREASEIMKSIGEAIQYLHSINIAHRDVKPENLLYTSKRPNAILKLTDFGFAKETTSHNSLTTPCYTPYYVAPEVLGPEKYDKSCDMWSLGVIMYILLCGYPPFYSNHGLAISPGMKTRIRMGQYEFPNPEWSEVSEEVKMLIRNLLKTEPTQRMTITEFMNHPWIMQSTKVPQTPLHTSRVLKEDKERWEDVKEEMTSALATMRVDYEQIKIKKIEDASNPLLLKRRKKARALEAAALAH
Chain of Proto-oncogene tyrosine-protein kinase Src (P12931 2-536 limits assumed): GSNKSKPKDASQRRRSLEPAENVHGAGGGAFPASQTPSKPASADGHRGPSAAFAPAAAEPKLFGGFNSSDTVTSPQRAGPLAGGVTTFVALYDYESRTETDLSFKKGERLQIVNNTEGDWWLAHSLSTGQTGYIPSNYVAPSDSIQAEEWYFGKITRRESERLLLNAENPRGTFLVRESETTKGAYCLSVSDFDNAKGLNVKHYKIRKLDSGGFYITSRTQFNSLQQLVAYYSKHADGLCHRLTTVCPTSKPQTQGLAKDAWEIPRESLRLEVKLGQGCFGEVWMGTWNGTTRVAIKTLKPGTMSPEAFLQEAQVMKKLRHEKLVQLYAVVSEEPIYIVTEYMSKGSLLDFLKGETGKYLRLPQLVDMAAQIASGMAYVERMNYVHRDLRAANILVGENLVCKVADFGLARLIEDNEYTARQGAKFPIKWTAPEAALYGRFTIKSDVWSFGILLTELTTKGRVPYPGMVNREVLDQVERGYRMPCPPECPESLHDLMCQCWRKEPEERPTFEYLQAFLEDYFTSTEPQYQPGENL
Chain of RAC-alpha serine/threonine-protein kinase (P31749 whole entry): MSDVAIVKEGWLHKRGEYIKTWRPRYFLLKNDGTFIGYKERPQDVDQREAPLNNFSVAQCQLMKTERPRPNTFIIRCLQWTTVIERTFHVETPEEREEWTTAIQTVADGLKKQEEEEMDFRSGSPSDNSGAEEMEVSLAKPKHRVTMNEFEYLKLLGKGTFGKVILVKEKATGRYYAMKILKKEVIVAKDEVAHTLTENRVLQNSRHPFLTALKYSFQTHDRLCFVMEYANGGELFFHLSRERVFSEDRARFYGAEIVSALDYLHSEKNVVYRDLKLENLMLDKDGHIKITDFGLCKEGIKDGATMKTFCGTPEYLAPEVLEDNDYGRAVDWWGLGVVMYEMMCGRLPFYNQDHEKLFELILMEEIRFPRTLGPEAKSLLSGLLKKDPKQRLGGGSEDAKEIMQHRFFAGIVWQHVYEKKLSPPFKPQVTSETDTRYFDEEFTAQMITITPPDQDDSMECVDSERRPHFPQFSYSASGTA

As for `COc1cc2ncc3c(N)nc4c(C)c(N)ccc4c3c2cc1OC`, the IC50 was above 10 µM in [1]; above 10 µM in test [2]; 0.35 µM in test [3]; 1.55 µM in test [4]; 4.3 µM in [5]; 2.53 µM in test [6]. Besides, the IC50 in test [7] is 0.48 µM; in test [8], above 10 µM; in [9] it was above 10 µM; in test [10] it was 3.9 µM; in test [11] it was above 10 µM; in test [12], above 10 µM. Further, the IC50 in [13] was above 10 µM; in test [14], above 10 µM; in test [15] it was above 10 µM; in [16] it was above 10 µM; in [17], above 10 µM; in test [18], 3.6 µM. In addition, the IC50 in test [19] was above 10 µM.
In test [20], `COc1cc2ncc3cnc4ccccc4c3c2cc1OC` yielded an IC50 of 7.45 µM.
Same read-out and setting: the same measure for `COc1cc2ncc3c(N)nc4c(C)c(Cl)ccc4c3c2cc1OC`: 2.12 µM; for `COc1cc2c(cc1NCCN(C)C)ncc1c(N)nc3c(C)c(N)ccc3c12`: 2.49 µM; for `COc1cc2c(cc1F)ncc1c(N)nc3c(C)c(N)ccc3c12`: 0.58 µM.
For the compound `COc1cc2c(cc1OCCN1CCOCC1)ncc1c(N)nc3c(C)c(N)ccc3c12`, the IC50 in [20] was determined as 0.06 µM.
As for `COc1cc2ncc3c(N)nc4c(C)c(O)ccc4c3c2cc1OC`, the IC50 in [20] came to 0.04 µM.
For the compound `COc1cc2c(cc1OCCCN(C)C)ncc1c(N)nc3c(C)c(N)ccc3c12`, the IC50 in [20] came to 0.2 µM.
